Laboratory results as given in patent US11220504B2, “Pyrrolo[3,2-d] pyrimidine derivatives for the treatment of viral infections and other diseases” (JANSSEN SCIENCES IRELAND UNLIMITED COMPANY, priority 2012, dated 2022).

Assays:
[1] = target: T1, human TLR8 (Homo sapiens, UniProt Q9NR97); experiment: TLR8 cellular reporter assay (HEK293, NFκB-luc); assay type: cell-based; settings: HEK293 cells transfected with CMV-TLR8 and NFκB-luc, 6 hours incubation; lowest effective concentration
T1 construct: expressed in transfected cells; host or cells: HEK293 cells, transient transfection with TLR8 plasmid and NFκB-luc plasmid
T1 sequence (Q9NR97 27-1041): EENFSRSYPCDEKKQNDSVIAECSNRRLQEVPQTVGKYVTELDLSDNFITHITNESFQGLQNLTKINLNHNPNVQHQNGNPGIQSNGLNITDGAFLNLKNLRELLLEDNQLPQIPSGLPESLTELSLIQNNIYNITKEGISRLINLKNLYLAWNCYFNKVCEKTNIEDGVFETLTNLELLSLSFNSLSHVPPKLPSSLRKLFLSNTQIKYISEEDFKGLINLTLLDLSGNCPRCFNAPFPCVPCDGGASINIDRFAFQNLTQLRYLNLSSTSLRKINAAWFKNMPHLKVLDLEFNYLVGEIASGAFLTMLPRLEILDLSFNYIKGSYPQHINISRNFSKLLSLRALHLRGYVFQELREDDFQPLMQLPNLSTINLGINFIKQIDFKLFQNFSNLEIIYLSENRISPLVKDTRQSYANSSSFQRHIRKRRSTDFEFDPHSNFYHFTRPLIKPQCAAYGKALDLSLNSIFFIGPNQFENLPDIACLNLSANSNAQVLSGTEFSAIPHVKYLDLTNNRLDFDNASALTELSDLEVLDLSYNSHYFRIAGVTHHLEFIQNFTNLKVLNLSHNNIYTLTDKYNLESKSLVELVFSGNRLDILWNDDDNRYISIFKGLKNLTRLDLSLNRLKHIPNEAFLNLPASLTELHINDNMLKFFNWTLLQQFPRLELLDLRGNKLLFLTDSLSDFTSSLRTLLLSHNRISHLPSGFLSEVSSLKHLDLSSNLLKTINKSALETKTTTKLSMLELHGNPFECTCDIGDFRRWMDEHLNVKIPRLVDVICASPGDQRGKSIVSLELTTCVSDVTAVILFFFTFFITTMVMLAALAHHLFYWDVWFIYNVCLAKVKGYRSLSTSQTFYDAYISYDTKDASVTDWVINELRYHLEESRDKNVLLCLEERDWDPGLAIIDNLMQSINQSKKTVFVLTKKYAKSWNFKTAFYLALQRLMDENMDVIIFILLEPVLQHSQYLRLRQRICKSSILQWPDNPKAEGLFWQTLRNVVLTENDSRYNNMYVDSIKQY
Description: (§1) The ability of compounds to activate human TLR7 and/or TLR8 was assessed in a cellular reporter assay using HEK293 cells transiently transfected with a TLR7 or TLR8 expression vector and NFκB-luc reporter construct.
(§2) Briefly, HEK293 cells were grown in culture medium (DMEM supplemented with 10% FCS and 2 mM Glutamine). […] Thirty microliters of cells were then dispensed into each well in 384-well plates, where 10 μL of compound in 4% DMSO was already present. Following 6 hours incubation at 37° C., 5% CO2, the luciferase activity was determined by adding 15 μL of Steady Lite Plus substrate (Perkin Elmer) to each well and readout performed on a ViewLux ultraHTS microplate imager (Perkin Elmer). Dose response curves were generated from measurements performed in quadruplicates.

[2] = target: T2, human TLR7 (Homo sapiens, UniProt Q9NYK1); experiment: TLR7 cellular reporter assay (HEK293, NFκB-luc); assay type: cell-based; settings: HEK293 cells transfected with CMV-TLR7 and NFκB-luc, 6 hours incubation; lowest effective concentration
T2 construct: expressed in transfected cells; host or cells: HEK293 cells, transient transfection with CMV-TLR7 plasmid and NFκB-luc plasmid
T2 sequence (Q9NYK1 27-1049): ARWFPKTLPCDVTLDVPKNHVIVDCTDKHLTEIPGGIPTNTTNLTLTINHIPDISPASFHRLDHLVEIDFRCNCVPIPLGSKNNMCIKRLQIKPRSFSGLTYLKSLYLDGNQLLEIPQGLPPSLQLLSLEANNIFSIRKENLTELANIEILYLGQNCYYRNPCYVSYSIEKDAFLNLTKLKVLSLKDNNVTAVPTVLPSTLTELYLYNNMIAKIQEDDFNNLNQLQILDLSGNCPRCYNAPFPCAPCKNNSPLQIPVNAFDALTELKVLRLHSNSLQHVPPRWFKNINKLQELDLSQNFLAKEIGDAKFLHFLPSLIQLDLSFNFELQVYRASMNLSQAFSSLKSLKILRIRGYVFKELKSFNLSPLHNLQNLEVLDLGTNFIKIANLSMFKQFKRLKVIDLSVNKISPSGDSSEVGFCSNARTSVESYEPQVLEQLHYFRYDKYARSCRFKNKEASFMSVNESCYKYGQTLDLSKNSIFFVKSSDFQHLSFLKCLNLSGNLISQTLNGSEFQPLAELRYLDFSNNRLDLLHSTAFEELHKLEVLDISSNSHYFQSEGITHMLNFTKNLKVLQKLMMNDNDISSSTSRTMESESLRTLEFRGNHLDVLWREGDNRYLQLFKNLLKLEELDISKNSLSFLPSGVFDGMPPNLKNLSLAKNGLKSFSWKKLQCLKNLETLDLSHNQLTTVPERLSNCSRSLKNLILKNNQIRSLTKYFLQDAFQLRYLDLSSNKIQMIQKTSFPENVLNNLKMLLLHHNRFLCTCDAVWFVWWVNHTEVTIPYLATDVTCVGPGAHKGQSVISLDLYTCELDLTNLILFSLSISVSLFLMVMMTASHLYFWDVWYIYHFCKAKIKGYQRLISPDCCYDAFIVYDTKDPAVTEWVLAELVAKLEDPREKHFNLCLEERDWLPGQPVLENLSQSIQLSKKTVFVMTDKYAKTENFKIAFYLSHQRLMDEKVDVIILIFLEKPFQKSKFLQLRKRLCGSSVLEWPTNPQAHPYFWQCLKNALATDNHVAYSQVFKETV
Description: as §1, §2

[3] = tested on: interferon-stimulated responsive elements (ISRE); experiment: Activation of ISRE promoter elements by conditioned media from PBMC (HEK-ISREluc); assay type: cell-based, human; settings: Homo sapiens; conditioned media from PBMC transferred to HEK-ISREluc cells, 24 hours; lowest effective concentration; read-out: PBMC LEC
Description: The potential of compounds to induce IFN-I was also evaluated by measuring the activation of interferon-stimulated responsive elements (ISRE) by conditioned media from PBMC. The ISRE element of sequence […] (SEQ. ID NO:1) is highly responsive to the STAT1-STAT2-IRF 9 transcription factor, activated upon binding of IFN-I to their receptor IFNAR (Clontech, PT3372-5W). […] A HEK293 cell line stably transfected with pISRE-Luc (HEK-ISREluc) was established to profile of the conditioned PBMC cell culture media.
Briefly, PBMCs were prepared from buffy coats of at least two donors using a standard Ficoll centrifugation protocol. Isolated PBMCs were resuspended in RPMI medium supplemented with 10% human AB serum and 2×10^5 cells/well were dispensed into 384-well plates containing compounds (70 μL total volume). After overnight incubation, 10 μL of supernatant was transferred to 384-well plates containing 5×10^3 HEK-ISREluc cells/well in 30 μL (plated the day before). Following 24 hours of incubation, activation of the ISRE elements was measured by assaying luciferase activity using 40 μL/well Steady Lite Plus substrate (Perkin Elmer) and measured with ViewLux ultraHTS microplate imager (Perkin Elmer). The stimulating activity of each compound on the HEK-ISREluc cells was reported as LEC value, defined as the compound concentration applied to the PBMCs resulting in a luciferase activity at least two fold above the standard deviation of the assay. The LEC in turn indicates the degree of ISRE activation on transfer of a defined amount of PBMC culture medium. Recombinant interferon α-2a (Roferon-A) was used as a standard control compound.

Row | SMILES | TLR8 LEC [1] [µM] | TLR7 LEC [2] [µM] | minimal effective concentration [3] [µM]
1 | Cc1cc(CNc2nc(N)nc3ccn(Cc4cn(-c5ccccc5)nn4)c23)no1 [Compound 176] | >25 | 0.04 | 0.009
2 | CCCC(C)Nc1nc(N)nc2ccn(Cc3ccccc3F)c12 (stereo not drawn) [Compound 74] | >25 | 0.10 | 0.04
3 | Nc1nc(NCc2ccoc2)c2c(ccn2Cc2ccccc2)n1 [Compound 45] | >25 | 19.9 | 0.74
4 | CCC[C@@H](CCO)Nc1nc(N)nc2ccn(CC3CCCCC3)c12 [Compound 87] | >25 | 0.01 | 0.008
5 | CCCCNc1nc(N)nc2ccn(Cc3c(OC)cccc3OC)c12 [Compound 97] | 0.23 | <0.01 | 0.001
6 | CC1CC1CNc1nc(N)nc2ccn(Cc3ccccc3)c12 (stereo not drawn) [Compound 46] | >25 | 0.83 | 0.17
7 | CCCNc1nc(N)nc2ccn(Cc3ccccc3)c12 [Compound 23] | >25 | 0.83 | 0.27
8 | COCCn1ccc2nc(N)nc(N[C@H](C)c3ccccn3)c21 (single isomer, unassigned) [Compound 151] | >25 | 12.8 | 2.58
9 | CCCC[C@@H](CCO)Nc1nc(N)nc2ccn(CC(C)C)c12 [Compound 28] | 1.1 | 0.11 | 0.03
10 | CCCC[C@@H](CCO)Nc1nc(N)nc2ccn(Cc3ccccc3)c12 [Compound 37] | >25 | 0.005 | 0.007
11 | Cc1nc(CNc2nc(N)nc3ccn(Cc4cnccn4)c23)no1 [Compound 204] | >25 | 1.78 | 0.188
12 | CCCCNc1nc(N)nc2ccn(Cc3ccc(OC)cc3)c12 [Compound 41] | >25 | 0.09 | 0.11
13 | COc1cc(OC)nc(Cn2ccc3nc(N)nc(NCc4noc(C)n4)c32)n1 [Compound 209] | >25 | 0.04 | 0.008
14 | COCCNc1nc(N)nc2ccn(Cc3cccc4c3OCC4)c12 [Compound 150] | >25 | 0.25 | 0.054
15 | CCNc1nc(N)nc2ccn(Cc3ccccc3)c12 [Compound 35] | >25 | 1.49 | 0.7
16 | CCCCNc1nc(N)nc2ccn(Cc3cccc4c3OCC4)c12 [Compound 149] | >25 | 0.02 | 0.006
17 | CCCCNc1nc(N)nc2ccn(CCOC)c12 [Compound 4] | 13.5 | 0.60 | 0.4
18 | CCCC[C@@H](CO)Nc1nc(N)nc2ccn(Cc3cccnn3)c12 [Compound 14] | 6.57 | 0.52 | 0.01

Second part, led by results:

Row | TLR8 LEC [1] [µM] | TLR7 LEC [2] [µM] | SMILES | minimal effective concentration [3] [µM]
19 | >25 | 0.049 | CCCCNc1nc(N)nc2ccn(Cc3cccc(CN4CCCC4)c3)c12 [Compound 116] | 0.022
20 | 0.08 | <0.01 | CCCC[C@@H](CO)Nc1nc(N)nc2ccn(Cc3c(OC)cccc3OC)c12 [Compound 101] | < 0.001
21 | >25 | 0.91 | CC(C)CNc1nc(N)nc2ccn(Cc3ccccc3)c12 [Compound 32] | 0.52
22 | 2.17 | 0.05 | CCCC[C@@H](CCO)Nc1nc(N)nc2ccn(CC3CCCO3)c12 (stereo partly drawn) [Compound 91] | 0.02
23 | 6.47 | 0.02 | CCC[C@@H](CCO)Nc1nc(N)nc2ccn(Cc3ccccn3)c12 [Compound 24] | 0.0007
24 | >25 | 0.02 | CCCCNc1nc(N)nc2ccn(Cc3ccccc3OC(F)F)c12 [Compound 161] | 0.009
25 | >25 | 0.08 | Cc1cc(CNc2nc(N)nc3ccn(Cc4cscn4)c23)no1 [Compound 154] | 0.017
26 | >25 | 0.05 | Cc1cc(CNc2nc(N)nc3ccn(Cc4ccccc4)c23)no1 [Compound 48] | 0.03
27 | 7.06 | 2.5 | CCCCNc1nc(N)nc2ccn(C(C)C)c12 [Compound 19] | 0.62
28 | 2.46 | 0.01 | CCCC[C@@H](CCO)Nc1nc(N)nc2ccn(Cc3cscn3)c12 [Compound 88] | 0.0006
